Literature values, collected in US20070021352A1, “PREVENTION AND TREATMENT OF HEARING DISORDERS” (Cypress Bioscience, Inc., priority 2005, published 2007).

Legend:
cochlea = settings: guinea pig model; local administration
[1] = elderly patients; preliminary results
[2] = normal, healthy volunteers; daily ingestion of 6.7 mmol; rifle noise six days per week for eight weeks; vs placebo (sodium aspartate)
[3] = humans; daily ingestion of 122 mg for 10 days

SMILES: CCN(CC)CCn1c(=O)c(Cc2ccc(OC)cc2)nc2ccccc21 [caroverine, 1-[2-(diethylamino)ethyl]-3-[(4-methoxyphenyl)methyl]-2-(1H)-quinoxalinone]
- protection of cochlea from noise trauma (cochlea): protection of cochlea from noise trauma

SMILES: CN(C)CCCC1(c2ccc(F)cc2)OCc2cc(C#N)ccc21 (stereo not shown) [citalopram, 1-[3-(dimethylamino)propyl]-1-(4-fluorophenyl)-1,3-dihydro-5-isobenzofurancarbonitrile]
- impact on auditory processes [1]: positive impact on auditory processes in the elderly

SMILES: N[C@@H](CC(=O)[O-])C(=O)[O-].[Mg+2] [magnesium aspartate]
- permanent threshold shift [2]: significant effect on permanent threshold shift

SMILES: [Mg] [magnesium]
- noise-induced temporary threshold shift [3]: protect against noise-induced temporary threshold shift
